Measurements: PMC5712521, “Dendrogenin A drives LXR to trigger lethal autophagy in cancers” (Nature Communications, 2017)

Experiments:
HL60 cells = test: qRT-PCR of Nur77 and NOR1; type: cell-based, human; settings: HL60, 24 h; 5 µM DDA, 2 µM TO, 2 µM GW, 10 µM 22(R)HC
Experimental: (§1) Total RNA was extracted from tumor cells or MEFs using an RNA Extraction kit (Qiagen) or Trizol (Invitrogen), respectively, and was quantified with NanoDrop. Complementary DNA (cDNA) synthesis was performed with 1 μg RNA iScript Reverse Transcriptase (Bio-Rad). 25 ng cDNA was amplified using SyBR Supermix (Bio-Rad). RNA expression of the different genes of interest (Supplementary Tables 1, 2) were determined using the ΔΔCT method, where the difference in the threshold cycle (ΔCT) values of the target gene and the housekeeping gene for each sample was normalized to the ΔCT value of the untreated sample.
(§2) Supplementary Fig. 6. […]
(§3) D ata are expressed relative to the control (solvent vehic le). D ata from b, f, g, h, j, p, q ar e the m eans ± S.E.M. of 3 independent experiments performed in triplicate (*P<0.05, **P<0.01, ***P<0.001, t test). Images are representative of 3 independent experim ents.

KG1 cells = test: qRT-PCR of Nur77 and NOR1; type: cell-based, human; settings: KG1, 24 h; 5 µM DDA, 2 µM TO, 2 µM GW, 10 µM 22(R)HC
Experimental: as §1, §2, §3

B16F10 cells [1] = test: RT-qPCR of LXR-responsive genes; type: cell-based, mouse; settings: 8 h, 2.5 µM DDA, 10 µM 22(R)HC, 1 µM GW, 100 nM TO, vs vehicle
Experimental: as §1
(§4) Supplementary Fig. 4. a R egulat ion of LXR-responsive genes b y D DA and other k nown LXR
(§5) ligands in B16F10 and SKMEL- 28 cells transfected with s iRN A targeting LXRβ ( siLXRβ) or
(§6) with contro l siRN A scram ble (siSC). Cells were treated for 8 h with either solvent vehicle, 2.5
(§7) µM DD A, 10 µM 22(R) hydrox ycholesterol (22(R)HC), 1 µM GW 3965 (GW ) or 100 nM
(§8) T O901317 (T O). […]

SKMEL-28 cells [2] = test: RT-qPCR of LXR-responsive genes; type: cell-based, human; settings: 8 h, 2.5 µM DDA, 10 µM 22(R)HC, 1 µM GW, 100 nM TO, vs vehicle
Experimental: as §1, §4, §5, §6, §7, §8

B16F10 cells [3] = test: DDA-induced cytotoxicity (cell death); type: cell-based; settings: B16F10; 5 µM 22(R)HC, 0.5 µM TO, 1 µM GW
Experimental: (§9) Melanoma cells were seeded into 6-well plates at 60,000 cells per well and AML cells at 250,000 cells/ml. The cells were then treated with control solvent vehicle (1/1000 ethanol in water) or DDA. Where indicated, treated cells were incubated in the presence or absence of each inhibitor for time shown. Cell death was determined by the trypan blue exclusion assay. Cells were scraped and resuspended in trypan blue solution (0.25% (w/v) in PBS) and counted in a Malassez cell under light microscopy. Cell viability was then quantified by counting viable (trypan blue-negative) and dead cells (trypan blue-positive).
(§10) Supplementary Fig. 1. a DDA inhibited m elanom a colony form ation. Melanom a cells were […]
(§11) a 0.5% solution of crystal violet in water and analyzed by microscopy. Images are representative of 5 independent experiments. b Evaluation of DDA-induced cytotoxicity (cytotox) and clonogenicity (clono) inhibition in a subset of human (H) and mouse (M) m elanom a cell lines. T he BRaf status in m elanom a cells lines is shown. […]

SKMEL-28 cells [4] = test: DDA-induced cytotoxicity (cell death); type: cell-based; settings: SKMEL-28; 5 µM 22(R)HC, 0.5 µM TO, 1 µM GW
Experimental: as §9, §10, §11

B16F10 cells [5] = test: Sterol analysis by GC/MS; type: cell-based, mouse; settings: B16F10, 24 h, 10 µM 22(R)HC, 1 µM GW, 100 nM TO
Experimental: Sterols in cell homogenates were extracted with a solvent mixture containing chloroform/methanol 2/1 (v/v) spiked with epicoprostanol as the internal standard. Lipids were partitioned in chloroform after the addition of saline and saponified by methanolic potassium hydroxide (0.5 N, 60 °C, 15 min). The fatty acids released were methylated with BF3-methanol (12%, 60 °C, 15 min) to not interfere with the chromatography of sterols. The sterols were re-extracted in hexane and silylated, as described previously. The trimethylsilylether derivatives of the sterols were separated by gas chromatography (GC) (Hewlett–Packard 6890 series) in a medium polarity capillary column RTX-65, (65% diphenyl 35% dimethyl polysiloxane, length 30 m, diameter 0.32 mm, film thickness 0.25 μm (Restesk, Evry, France)). The mass spectrometer (Agilent 5975 inert XL) in series with the GC was set up for the detection of positive ions. Ions were produced in the electron impact mode at 70 eV. Sterols were identified by the fragmentogram in the scanning mode and quantified by selective monitoring of the specific ions after normalization with the internal standard epicoprostanol and calibration with weighed standards. […]
Anal yses were perform ed by GC/MS. f Quantification of sterols accumulated in
m elanom a cells after 24 h treatm ent with 10 µM 22(R) HC, 1 µ M GW , 100 nM T O or solvent
vehicle. […]

O=C(O)Cc1cccc(OCCCN(Cc2cccc(C(F)(F)F)c2Cl)CC(c2ccccc2)c2ccccc2)c1 [GW, GW3965]
NOR1 mRNA levels (Fold over control) (HL60 cells): 0.3 fold
Nur77 mRNA levels (Fold over control) (HL60 cells): 1.3 fold
NOR1 mRNA levels (Fold over control) (KG1 cells): 1.8 fold
Nur77 mRNA levels (Fold over control) (KG1 cells): 0.8 fold
ABCA1 mRNA (B16F10 cells [1]; B16F10, siCT): 14.3±1.6 fold
ABCG1 mRNA (B16F10 cells [1]; B16F10, siCT): 2.1±0.4 fold
ABCG5 mRNA (B16F10 cells [1]; B16F10, siCT): 1.9±0.5 fold
ABCG8 mRNA (B16F10 cells [1]; B16F10, siCT): 1.7±0.2 fold
LC3A mRNA (B16F10 cells [1]; B16F10, siCT): 1.1±0.1 fold
LC3B mRNA (B16F10 cells [1]; B16F10, siCT): 1.1±0.1 fold
LDLR mRNA (B16F10 cells [1]; B16F10, siCT): 2.0±0.1 fold
NOR1 mRNA (B16F10 cells [1]; B16F10, siCT): 1.6±0.2 fold
Nur77 mRNA (B16F10 cells [1]; B16F10, siCT): 1.0±0.3 fold
SCD1 mRNA (B16F10 cells [1]; B16F10, siCT): 1.9±0.2 fold
SREBP1 mRNA (B16F10 cells [1]; B16F10, siCT): 3.1±0.2 fold
SULT2b1b mRNA (B16F10 cells [1]; B16F10, siCT): 1.2±0.1 fold
ABCA1 mRNA (B16F10 cells [1]; B16F10, siLXRβ): 2.6±0.1 fold
ABCG1 mRNA (B16F10 cells [1]; B16F10, siLXRβ): 1.1±0.2 fold
ABCG5 mRNA (B16F10 cells [1]; B16F10, siLXRβ): 0.9±0.1 fold
ABCG8 mRNA (B16F10 cells [1]; B16F10, siLXRβ): 0.9±0.1 fold
LC3A mRNA (B16F10 cells [1]; B16F10, siLXRβ): 1.1±0.2 fold
LC3B mRNA (B16F10 cells [1]; B16F10, siLXRβ): 1.1±0.3 fold
LDLR mRNA (B16F10 cells [1]; B16F10, siLXRβ): 1.0±0.2 fold
NOR1 mRNA (B16F10 cells [1]; B16F10, siLXRβ): 1.0±0.1 fold
Nur77 mRNA (B16F10 cells [1]; B16F10, siLXRβ): 0.9±0.2 fold
SCD1 mRNA (B16F10 cells [1]; B16F10, siLXRβ): 1.1±0.1 fold
SREBP1 mRNA (B16F10 cells [1]; B16F10, siLXRβ): 1.1±0.2 fold
SULT2b1b mRNA (B16F10 cells [1]; B16F10, siLXRβ): 1.0±0.1 fold
ABCA1 mRNA (SKMEL-28 cells [2]; SKMEL-28, siCT): 15.1±2 fold
ABCG1 mRNA (SKMEL-28 cells [2]; SKMEL-28, siCT): 3.2±0.5 fold
ABCG5 mRNA (SKMEL-28 cells [2]; SKMEL-28, siCT): 3.1±0.5 fold
ABCG8 mRNA (SKMEL-28 cells [2]; SKMEL-28, siCT): 1.5±0.1 fold
LC3A mRNA (SKMEL-28 cells [2]; SKMEL-28, siCT): 0.8±0.2 fold
LC3B mRNA (SKMEL-28 cells [2]; SKMEL-28, siCT): 0.9±0.1 fold
LDLR mRNA (SKMEL-28 cells [2]; SKMEL-28, siCT): 1.0±0.2 fold
NOR1 mRNA (SKMEL-28 cells [2]; SKMEL-28, siCT): 1.5±0.1 fold
Nur77 mRNA (SKMEL-28 cells [2]; SKMEL-28, siCT): 0.7±0.2 fold
SCD1 mRNA (SKMEL-28 cells [2]; SKMEL-28, siCT): 1.6±0.1 fold
SREBP1 mRNA (SKMEL-28 cells [2]; SKMEL-28, siCT): 2.6±0.3 fold
SULT2B1b mRNA (SKMEL-28 cells [2]; SKMEL-28, siCT): 2.8±0.1 fold
ABCA1 mRNA (SKMEL-28 cells [2]; SKMEL-28, siLXRβ): 2.2±0.3 fold
ABCG1 mRNA (SKMEL-28 cells [2]; SKMEL-28, siLXRβ): 1.2±0.1 fold
ABCG5 mRNA (SKMEL-28 cells [2]; SKMEL-28, siLXRβ): 1.1±0.1 fold
ABCG8 mRNA (SKMEL-28 cells [2]; SKMEL-28, siLXRβ): 0.8±0.1 fold
LC3A mRNA (SKMEL-28 cells [2]; SKMEL-28, siLXRβ): 1.0±0.3 fold
LC3B mRNA (SKMEL-28 cells [2]; SKMEL-28, siLXRβ): 1.1±0.3 fold
LDLR mRNA (SKMEL-28 cells [2]; SKMEL-28, siLXRβ): 0.9±0.1 fold
NOR1 mRNA (SKMEL-28 cells [2]; SKMEL-28, siLXRβ): 0.8±0.1 fold
Nur77 mRNA (SKMEL-28 cells [2]; SKMEL-28, siLXRβ): 0.9±0.2 fold
SCD1 mRNA (SKMEL-28 cells [2]; SKMEL-28, siLXRβ): 1.1±0.1 fold
SREBP1 mRNA (SKMEL-28 cells [2]; SKMEL-28, siLXRβ): 1.5±0.2 fold
SULT2B1b mRNA (SKMEL-28 cells [2]; SKMEL-28, siLXRβ): 1.1±0.2 fold
cell death (B16F10 cells [3]): no impact on cell death
cell death (SKMEL-28 cells [4]): no impact on cell death
Sterol amount/total sterol: 8-DHC (B16F10 cells [5]): 0.05± 0.005
Sterol amount/total sterol: zymostenol (B16F10 cells [5]): 0.11 ± 0.08
